Toxic doses and inconclusive results are not listed.
System: CD2F1 mice, L1210 leukemia ip, survival T/C
Experiment: NCI In Vivo Anticancer Drug Screen. Data for tumor model L1210 Leukemia (intraperitoneal) in CD2F1 (CDF1) mice
Settings: higher = longer survival
Outline: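 Antitumor effect is scored in animals hosting a serially transplanted tumor. Values compare compound-dosed animals against vehicle-only controls as a simple quotient.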

## O=c1[nH]c(=O)n(C2CC(O)C(CO)O2)cc1F (stereo not drawn)
endpoint: mean survival time, dose: 5.0 mg/kg/injection, schedule: Q#A X018 (ip), vehicle: saline
  T/C: 115 % of control
endpoint: mean survival time, dose: 9.0 mg/kg/injection, schedule: Q#A X018 (ip), vehicle: saline
  T/C: 121 % of control
endpoint: mean survival time, dose: 12.5 mg/kg/injection, schedule: Q03HX024 (oral), vehicle: saline
  T/C: 101 % of control
endpoint: mean survival time, dose: 16.0 mg/kg/injection, schedule: Q#A X018 (ip), vehicle: saline
  T/C: 121 % of control
endpoint: mean survival time, dose: 25.0 mg/kg/injection, schedule: Q01DX005 (ip), vehicle: water
  T/C: 108 % of control
endpoint: mean survival time, dose: 25.0 mg/kg/injection, schedule: Q03HX008 (oral), vehicle: saline
  T/C: 107 % of control
endpoint: mean survival time, dose: 25.0 mg/kg/injection, schedule: Q03HX016 (ip), vehicle: saline
  T/C: 96 % of control
endpoint: mean survival time, dose: 26.0 mg/kg/injection, schedule: Q#A X018 (ip), vehicle: saline
  T/C: 123 % of control
endpoint: mean survival time, dose: 31.3 mg/kg/injection, schedule: Q01DX005 (ip), vehicle: saline
  T/C: 121 % of control
endpoint: mean survival time, dose: 37.5 mg/kg/injection, schedule: Q03DX003 (ip), vehicle: water
  T/C: 121 % of control
endpoint: mean survival time, dose: 37.5 mg/kg/injection, schedule: Q04DX003 (ip), vehicle: water
  T/C: 100 % of control
endpoint: mean survival time, dose: 43.0 mg/kg/injection, schedule: Q#A X018 (ip), vehicle: saline
  T/C: 108 % of control
endpoint: mean survival time, dose: 50.0 mg/kg/injection, schedule: Q01DX005 (ip), vehicle: water
  T/C: 110 % of control
endpoint: mean survival time, dose: 50.0 mg/kg/injection, schedule: Q01DX009 (oral), vehicle: saline
  T/C: 119 % of control
endpoint: mean survival time, dose: 50.0 mg/kg/injection, schedule: Q03HX008 (oral), vehicle: saline
  T/C: 111 % of control
endpoint: mean survival time, dose: 50.0 mg/kg/injection, schedule: Q03HX016 (ip), vehicle: saline
  T/C: 111 % of control
endpoint: mean survival time, dose: 50.0 mg/kg/injection, schedule: Q03HX024 (oral), vehicle: saline
  T/C: 107 % of control
endpoint: mean survival time, dose: 72.0 mg/kg/injection, schedule: Q#A X018 (ip), vehicle: saline
  T/C: 106 % of control
endpoint: mean survival time, dose: 75.0 mg/kg/injection, schedule: Q01DX007 (ip), vehicle: water
  T/C: 100 % of control
endpoint: mean survival time, dose: 75.0 mg/kg/injection, schedule: Q01DX009 (ip), vehicle: water
  T/C: 110 % of control
endpoint: mean survival time, dose: 75.0 mg/kg/injection, schedule: Q03DX003 (ip), vehicle: water
  T/C: 122 % of control
endpoint: mean survival time, dose: 75.0 mg/kg/injection, schedule: Q04DX003 (ip), vehicle: water
  T/C: 111 % of control
endpoint: mean survival time, dose: 80.0 mg/kg/injection, schedule: Q01DX009 (ip), vehicle: saline
  T/C: 167 % of control
endpoint: mean survival time, dose: 100.0 mg/kg/injection, schedule: Q01DX005 (ip), vehicle: water
  T/C: 110 % of control
endpoint: mean survival time, dose: 100.0 mg/kg/injection, schedule: Q03HX024 (oral), vehicle: saline
  T/C: 92 % of control
endpoint: mean survival time, dose: 100.0 mg/kg/injection, schedule: Q04DX003 (oral), vehicle: saline
  T/C: 114 % of control
endpoint: mean survival time, dose: 120.0 mg/kg/injection, schedule: Q#A X018 (ip), vehicle: saline
  T/C: 94 % of control
endpoint: mean survival time, dose: 125.0 mg/kg/injection, schedule: Q01DX001 (ip), vehicle: saline
  T/C: 101 % of control
endpoint: mean survival time, dose: 125.0 mg/kg/injection, schedule: Q01DX001 (oral), vehicle: saline
  T/C: 101 % of control
endpoint: mean survival time, dose: 125.0 mg/kg/injection, schedule: Q01DX001 (sc), vehicle: saline
  T/C: 109 % of control
endpoint: mean survival time, dose: 125.0 mg/kg/injection, schedule: Q01DX009 (oral), vehicle: saline
  T/C: 121 % of control
endpoint: mean survival time, dose: 125.0 mg/kg/injection, schedule: Q03HX008 (ip), vehicle: saline
  T/C: 120 % of control
endpoint: mean survival time, dose: 125.0 mg/kg/injection, schedule: Q03HX016 (ip), vehicle: saline
  T/C: 110 % of control
endpoint: mean survival time, dose: 125.0 mg/kg/injection, schedule: Q03HX024 (ip), vehicle: saline
  T/C: 163 % of control
endpoint: mean survival time, dose: 125.0 mg/kg/injection, schedule: Q04DX003 (ip), vehicle: saline
  T/C: 119 % of control
endpoint: mean survival time, dose: 125.0 mg/kg/injection, schedule: Q08DX002 (ip), vehicle: saline
  T/C: 100 % of control
endpoint: mean survival time, dose: 150.0 mg/kg/injection, schedule: Q01DX007 (ip), vehicle: water
  T/C: 100 % of control
endpoint: mean survival time, dose: 150.0 mg/kg/injection, schedule: Q01DX009 (ip), vehicle: water
  T/C: 100 % of control
endpoint: mean survival time, dose: 160.0 mg/kg/injection, schedule: Q01DX009 (ip), vehicle: saline
  T/C: 151 % of control
endpoint: mean survival time, dose: 200.0 mg/kg/injection, schedule: Q01DX001 (oral), vehicle: saline
  T/C: 113 % of control
endpoint: mean survival time, dose: 200.0 mg/kg/injection, schedule: Q01DX005 (ip), vehicle: water
  T/C: 87 % of control
endpoint: mean survival time, dose: 200.0 mg/kg/injection, schedule: Q01DX009 (oral), vehicle: saline
  T/C: 114 % of control
endpoint: mean survival time, dose: 200.0 mg/kg/injection, schedule: Q03HX008 (oral), vehicle: saline
  T/C: 94 % of control
endpoint: mean survival time, dose: 200.0 mg/kg/injection, schedule: Q03HX016 (ip), vehicle: saline
  T/C: 118 % of control
endpoint: mean survival time, dose: 200.0 mg/kg/injection, schedule: Q08DX002 (oral), vehicle: saline
  T/C: 103 % of control
endpoint: mean survival time, dose: 200.0 mg/kg/injection, schedule: Q#A X018 (ip), vehicle: saline
  T/C: 88 % of control
endpoint: mean survival time, dose: 250.0 mg/kg/injection, schedule: Q01DX001 (ip), vehicle: saline
  T/C: 111 % of control
endpoint: mean survival time, dose: 250.0 mg/kg/injection, schedule: Q01DX001 (oral), vehicle: saline
  T/C: 108 % of control
endpoint: mean survival time, dose: 250.0 mg/kg/injection, schedule: Q01DX001 (sc), vehicle: saline
  T/C: 123 % of control
endpoint: mean survival time, dose: 250.0 mg/kg/injection, schedule: Q01DX009 (ip), vehicle: saline
  T/C: 108 % of control
endpoint: mean survival time, dose: 250.0 mg/kg/injection, schedule: Q01DX009 (oral), vehicle: saline
  T/C: 121 % of control
endpoint: mean survival time, dose: 250.0 mg/kg/injection, schedule: Q01DX009 (sc), vehicle: saline
  T/C: 122 % of control
endpoint: mean survival time, dose: 250.0 mg/kg/injection, schedule: Q03HX024 (ip), vehicle: saline
  T/C: 155 % of control
endpoint: mean survival time, dose: 250.0 mg/kg/injection, schedule: Q04DX003 (ip), vehicle: saline
  T/C: 162 % of control
endpoint: mean survival time, dose: 250.0 mg/kg/injection, schedule: Q08DX002 (ip), vehicle: saline
  T/C: 115 % of control
endpoint: mean survival time, dose: 320.0 mg/kg/injection, schedule: Q01DX009 (ip), vehicle: saline
  T/C: 102 % of control
endpoint: mean survival time, dose: 400.0 mg/kg/injection, schedule: Q01DX001 (oral), vehicle: saline
  T/C: 117 % of control
endpoint: mean survival time, dose: 400.0 mg/kg/injection, schedule: Q01DX009 (oral), vehicle: saline
  T/C: 109 % of control
endpoint: mean survival time, dose: 400.0 mg/kg/injection, schedule: Q04DX003 (oral), vehicle: saline
  T/C: 119 % of control
endpoint: mean survival time, dose: 400.0 mg/kg/injection, schedule: Q08DX002 (oral), vehicle: saline
  T/C: 107 % of control
endpoint: mean survival time, dose: 500.0 mg/kg/injection, schedule: Q01DX001 (oral), vehicle: saline
  T/C: 121 % of control
endpoint: mean survival time, dose: 500.0 mg/kg/injection, schedule: Q03HX016 (ip), vehicle: saline
  T/C: 154 % of control
endpoint: mean survival time, dose: 500.0 mg/kg/injection, schedule: Q03HX024 (ip), vehicle: saline
  T/C: 121 % of control
endpoint: mean survival time, dose: 500.0 mg/kg/injection, schedule: Q08DX002 (ip), vehicle: saline
  T/C: 164 % of control
endpoint: mean survival time, dose: 800.0 mg/kg/injection, schedule: Q04DX003 (oral), vehicle: saline
  T/C: 110 % of control
endpoint: mean survival time, dose: 800.0 mg/kg/injection, schedule: Q08DX002 (oral), vehicle: saline
  T/C: 156 % of control
endpoint: mean survival time, dose: 1000.0 mg/kg/injection, schedule: Q01DX001 (oral), vehicle: saline
  T/C: 151 % of control
endpoint: mean survival time, dose: 1000.0 mg/kg/injection, schedule: Q01DX001 (sc), vehicle: saline
  T/C: 159 % of control
endpoint: mean survival time, dose: 1000.0 mg/kg/injection, schedule: Q03HX008 (ip), vehicle: saline
  T/C: 157 % of control
endpoint: mean survival time, dose: 1000.0 mg/kg/injection, schedule: Q03HX024 (ip), vehicle: saline
  T/C: 92 % of control
endpoint: mean survival time, dose: 1000.0 mg/kg/injection, schedule: Q04DX003 (ip), vehicle: saline
  T/C: 98 % of control
endpoint: mean survival time, dose: 1600.0 mg/kg/injection, schedule: Q01DX001 (oral), vehicle: saline
  T/C: 103 % of control
endpoint: mean survival time, dose: 1600.0 mg/kg/injection, schedule: Q08DX002 (oral), vehicle: saline
  T/C: 97 % of control
endpoint: median survival time, dose: 51.8 mg/kg/injection, schedule: Q04DX002 (ip), vehicle: saline
  T/C: 107 % of control
endpoint: median survival time, dose: 86.4 mg/kg/injection, schedule: Q04DX002 (ip), vehicle: saline
  T/C: 114 % of control
endpoint: median survival time, dose: 144.0 mg/kg/injection, schedule: Q04DX002 (ip), vehicle: saline
  T/C: 121 % of control
endpoint: median survival time, dose: 400.0 mg/kg/injection, schedule: Q04DX002 (ip), vehicle: saline
  T/C: 105 % of control

## CC1COS(=O)O1 (stereo not drawn)
endpoint: mean survival time, dose: 10.0 mg/kg/injection, schedule: Q01DX009 (ip), vehicle: saline with Tween-80
  T/C: 96 % of control
endpoint: mean survival time, dose: 10.0 mg/kg/injection, schedule: Q04DX003 (ip), vehicle: saline
  T/C: 103 % of control
endpoint: mean survival time, dose: 20.0 mg/kg/injection, schedule: Q01DX009 (ip), vehicle: saline with Tween-80
  T/C: 101 % of control
endpoint: mean survival time, dose: 20.0 mg/kg/injection, schedule: Q04DX003 (ip), vehicle: saline
  T/C: 97 % of control
endpoint: mean survival time, dose: 40.0 mg/kg/injection, schedule: Q01DX009 (ip), vehicle: saline with Tween-80
  T/C: 109 % of control
endpoint: mean survival time, dose: 40.0 mg/kg/injection, schedule: Q04DX003 (ip), vehicle: saline
  T/C: 101 % of control
